Assay results reported in patent publication US20090258869A1, “METHODS AND COMPOUNDS FOR TREATMENT OR PREVENTION OF SUBSTANCE-RELATED DISORDERS” (The Regents of the University of California, priority 2008, published 2009).

Columns and labels:
[1] = general statement, no test described; cited from earlier work
animals = conditions: literature; cited from earlier work
[2] = system: Tyrosine hydroxylase (TH); assay: TH protein levels (immunoreactivity) by Western blot in ethanol-treated SH-SY5Y cells; format: cell-based, human
Experimental: (§1) Cell culture. […] MEM nonessential amino acid solution (Invitrogen).
(§2) Treatments. Cells were treated with ethanol for 12-48 h in low serum media by replacing the media with ethanol every 12 h. […] PI-PLC was incubated with cells at a concentration of 0.3 u/ml for 1 h as described previously (1). Anti-GDNF neutralizing antibodies were dissolved in PBS and were used at a concentration of 10 μg/ml.
(§3) Western blot and immunoprecipitation. Cells were collected and lysed in RIPA buffer plus protease and phosphatase inhibitor cocktails for Western blot and immunoprecipitation as described previously (1,30). Briefly, 15 μg of each homogenate was subjected to an SDS-PAGE gel and blotted on a nitrocellulose membrane for Western blot analysis with anti-TH antibody or other primary antibodies, followed by reprobing with anti-Actin antibody. Alternatively, 500 μg of each homogenate was incubated with 5 μg of anti-TH, anti-HSP90 or anti-Akt antibodies in TBS-T buffer overnight at 4° C.1 followed by a 2-h incubation with Protein G agarose beads. Immunoprecipitates were separated on an SDS-PAGE gel for Western blot analysis.
(§4) Quantification and statistical analysis.

[3] = system: Tyrosine hydroxylase (TH); assay: Pulse-chase analysis of 35S-labeled TH protein stability in SH-SY5Y cells; format: cell-based, human
Experimental: as §1
Pulse-chase analysis. 24 h after ethanol treatment, cells were labeled following a pulse-chase procedure as described previously (31) with modifications. Briefly, cells were incubated with methionine/cystine-free DMEM (Invitrogen) containing 1% dialyzed FBS for 1 h and then labeled in the Met/Cysfree medium containing 25 μCi of Amersham Redivue Pro-Mix L-[35S] in vitro Cell Labeling Mix per ml for 3 h. Dialysis of FBS was performed against the Met/Cys-free medium overnight. After labeling, cells were washed twice with the normal medium and chased in the normal medium without ethanol for 2-8 h before homogenizing as described above. Homogenates were centrifuged and protein concentrations of the supernatants were determined. An equal amount of protein from each sample was immunoprecipitated with anti-TH antibody and separated by electrophoresis on an 8% SDS gel. Autoradiography was performed by exposure of the dried gels to Amersham Storage Phosphor Screen and visualization of radioactive signals using the Typhoon 9410 Variable Mode Imager (GE Healthcare).
as §4

[4] = system: Akt kinase and Hsp90 association; conditions: 100 mM ethanol 24 h
TH mRNA = conditions: 100 mM ethanol 12 h or 24 h
Hsp90 = Hsp90 protein levels by Western blot in SH-SY5Y cells; format: cell-based, human
Experimental: as §1, §2, §3, §4

TH-Hsp90 association = assay: Co-immunoprecipitation of TH with Hsp90 in SH-SY5Y cells; format: cell-based, human; conditions: 100 mM ethanol 24 h
Experimental: Treatments. […] PI-PLC was incubated with cells at a concentration of 0.3 u/ml for 1 h as described previously (1). Anti-GDNF neutralizing antibodies were dissolved in PBS and were used at a concentration of 10 μg/ml.

GDNF gene expression = conditions: in vitro in SH-SY5Y cells and in the midbrain region containing the VTA in vivo; previously reported; cited from earlier work
[5] = 100 mM ethanol 24 h, 25 ng/ml GDNF added for the last 12 h

CO[C@H]1/C=C\C=C(/C)C(=O)NC2=CC(=O)C(NCCN(C)C)=C(C[C@@H](C)C[C@H](OC)[C@H](O)[C@@H](C)/C=C(\C)[C@@H]1OC(N)=O)C2=O [17-DMAG, 17-(2 dimethylaminoethyl)amino-17-desmethoxy-geldanamycin]
water solubility [1]: more soluble

COC1=C2C[C@@H](C)C[C@H](OC)[C@H](O)[C@@H](C)/C=C(\C)[C@H](OC(N)=O)[C@@H](OC)/C=C\C=C(/C)C(=O)NC(=CC1=O)C2=O [GA, Geldanamycin]
water solubility [1]: less than ideal

O=C1CC[C@@]2(O)[C@H]3Cc4ccc(O)c5c4[C@@]2(CCN3CC2CC2)[C@H]1O5 [Naltrexone, naltrexone]
ethanol consumption in animal studies (animals): decrease

C[C@@H]1C[C@@H]([C@H](O)CC2CC(=O)NC(=O)C2)C(=O)[C@@H](C)C1 [cycloheximide, reference compound]
ethanol-mediated increases in TH protein levels ([2]; 100 mM ethanol 24 h, 30 μg/ml CHX for the last 12 h): did not inhibit

CCO [ethanol]
quantity of 35S-labeled TH protein at all points in the chase time course ([3]; 100 mM ethanol 24 h before pulse-chase, compared to control): increase
association between Akt kinase and Hsp90 [4]: did not alter
TH mRNA (TH mRNA): did not increase
protein level of Hsp90 (Hsp90; 100 mM ethanol alone, 12 h or 24 h): did not alter
association of TH with Hsp90 (TH-Hsp90 association): induced
immunoreactivity of TH ([2]; 10 mM ethanol, 24 h): significant increase
duration of ethanol-induced increase in TH protein levels ([2]; 100 mM ethanol 24 h, detected 24 h after ethanol washout): long-lasting
TH protein levels ([2]; 100 mM ethanol, after 24 h and 48 h of exposure): increase
increase in TH protein levels, dependence on ethanol concentration ([2]; different concentrations of ethanol, 24 h): dose-dependent manner

ibogaine [reference compound]
GDNF gene expression (GDNF gene expression): increases
ethanol induced increases in TH levels ([2]; 100 mM ethanol 24 h, 10 μM ibogaine added for the last 12 h): inhibited

B1: GDNF: Recombinant human GDNF polypeptide (glial cell line derived neurotropic factor) from R&D Systems (protein, UniProt P39905 78-211, looked up)
Glial cell line-derived …: SPDKQMAVLPRRERNRQAAAANPENSRGKGRRGQRGKNRGCVLTAIHLNVTDLGLGYETKEELIFRYCSGSCDAAETTYDKILKNLSRNRRLVSDKVGQACCRPIAFDDDLSFLDDNLVYHILRKHSAKRCGCI
quantity of 35S-labeled TH at all points on the chase time course [3, 5]: downregulates
Hsp90 immunoreactivity (Hsp90; [5]): not due to alteration
ethanol-mediated association of Hsp90 with TH (TH-Hsp90 association; 25 ng/ml GDNF added for the last 12 h): reversed
ethanol-mediated increase in TH levels [2, 5]: reversed
